The source of these data is US10350210B2, “EGFR and ALK dual inhibitor” (PRECEDO PHARMACEUTICALS CO., LTD, priority 2015, dated 2019).

For one experiment, the system named is PC-9. Description: Growth of cancer cells (Cell Titer-Glo viability), PC-9. As to conditions: Homo sapiens; PC-9 (EGFR delE746_A750 mutant), 72 hrs. The experiment is classed as cell-based. An outline of the steps:
(§1)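 Cells are counted as viable by CellTiter-Glo chemiluminescence. Murine BaF3 lines depend on a stably transfected TEL-fused kinase after IL-3 withdrawal, and the NSCLC lines express mutant EGFR.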

The next experiment concerns A431. Description: Growth of cancer cells (Cell Titer-Glo viability), A431. As to conditions: Homo sapiens, A-431; A431 (wild-type EGFR), 72 hrs; read-out: GI50. The experiment is classed as cell-based. (ATP-based viability assays read luminescence as a measure of living cells.)
A further experiment concerns BaF3. Description: Cell growth (Cell Titer-Glo viability), BaF3. Type of experiment: cell-based. The conditions noted are these: BaF3 mouse primary B cell, 72 hrs.
In the next experiment the test system is A549. In words: Growth of cancer cells (Cell Titer-Glo viability), A549. As to conditions: Homo sapiens; A549 (wild-type EGFR), 72 hrs. Type of experiment: cell-based.
Another experiment deals with CHL. Description: Cell growth (Cell Titer-Glo viability), CHL. The conditions noted are these: Cricetulus griseus; CHL Chinese hamster lung cell, 72 hrs; read-out: GI50. Type of experiment: cell-based, Chinese hamster.
Another experiment concerns CHO. In words: Cell growth (Cell Titer-Glo viability), CHO. The conditions noted are these: Cricetulus griseus; CHO Chinese hamster ovary cell, 72 hrs; read-out: GI50. The experiment is classed as cell-based, Chinese hamster.
The next experiment has as its system NCI-H2122. Description: Growth of cancer cells (Cell Titer-Glo viability), NCI-H2122. Type of experiment: cell-based. As to conditions: Homo sapiens; NCI-H2122 (wild-type EGFR), 72 hrs.
The subject of the next experiment is NCI-H1975. In words: Growth of cancer cells (Cell Titer-Glo viability), NCI-H1975. The experiment is classed as cell-based. The conditions noted are these: Homo sapiens; NCI-H1975 (EGFR L858R/T790M double mutant), 72 hrs. An outline of the steps:
as §1

In a further experiment the test system is BaF3-TEL-ALK. Description: Cell growth (Cell Titer-Glo viability), BaF3-TEL-ALK. Type of experiment: cell-based. As to conditions: Mus musculus; BaF3-TEL-ALK (stably expressing ALK kinase), 72 hrs. In a few lines: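 Mouse BaF3 cells retrovirally transduced with human kinase fused to N-terminal TEL fragment, then IL-3 withdrawn so proliferation depends on the transgene. HCC827 carries EGFR del19 and NCI-H3255 EGFR L858R. Viable cells were quantified by CellTiter-Glo chemiluminescence on a microplate reader.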

A further experiment relates to BaF3-NPM-ALK. Description: Cell growth (Cell Titer-Glo viability), BaF3-NPM-ALK. The experiment is classed as cell-based. As to conditions: Mus musculus; BaF3-NPM-ALK (stably expressing ALK kinase), 72 hrs.
Another experiment has as its system H1975. In words: Effect on cell cycle (PI staining, flow cytometer), H1975. The conditions noted are these: H1975 (EGFR L858R/T790M), 24 hours. Type of experiment: cell-based, human. The text has this: In order to study which growth phase the cell was halted after administration of the drugs, five cell lines including non-small cell lung cancer cell line A549 (expressing wild-type EGFR gene), non-small cell lung cancer cell line H1975 (expressing EGFR L858R/T790M double mutant gene), non-small cell Lung cancer cell line PC-9 (expressing EGFR delE746_A750 mutant gene), non-small cell lung cancer cell line H3255 (expressing EGFR L858R mutant gene) and non-small cell lung cancer cell NCI-H3122 (expressing ALK gene) were tested for effect of Compound 1 on cell cycle distribution. Two cell lines including non-small cell lung cancer cell NCI-H3122 (expressing ALK gene) and non-small cell lung cancer cell H1975 (expressing EGFR L858R/T790M double mutant gene) were tested for effect of Compound 10 on cell cycle distribution. […]
Background: In flow cytometry, cells or beads pass a laser one at a time.

The GI50 is the concentration that inhibits growth by half. With `C=CC(=O)Nc1cc(Nc2ncc(Cl)c(Nc3ccccc3S(=O)(=O)C(C)C)n2)c(OC)cc1N1CCN(CC)CC1` [Compound 1, N-(5-(5-chloro-4-(2-(isopropylsulfonyl)phenylamino)pyrimidin-2-ylamino)-2-(4-ethylpiperazin-1-yl)-4-methoxyphenyl)acrylamide], the GI50 in the experiment with PC-9 stood at 0.7 nM; with A431, 62 nM; in the experiment with BaF3, 1400 nM; in the experiment on A549, 410 nM; in the experiment with CHL, 1800 nM; with CHO it was 200 nM. The GI50 in the experiment on NCI-H2122 is 9 nM; in the experiment on NCI-H1975, 67 nM; with BaF3-TEL-ALK it was below 0.3 nM; in the experiment with BaF3-NPM-ALK it was below 0.3 nM. Also, the “effect on cell cycle distribution” value in the experiment on H1975 is reported as “halt the cells in G0-G1 phase”.

As to `C=CC(=O)Nc1cc(Nc2ncc(Cl)c(Nc3ccccc3S(=O)(=O)C(C)C)n2)c(OC)cc1N1CCCN(C)CC1` [Compound 10, N-(5-(5-chloro-4-(2-(isopropylsulfonyl)phenylamino)pyrimidin-2-ylamino)-4-methoxy-2-(4-methyl-1,4-homopiperazin-1-yl)phenyl)acrylamide], the GI50 in the experiment on PC-9 came to 15 nM; in the experiment with A431, 170 nM; with BaF3 it was 1200 nM; in the experiment with A549, 510 nM; in the experiment on CHL, 3500 nM; with CHO it was 990 nM. The concentration for 50% growth inhibition (GI50) worked out at 190 nM with NCI-H2122, 15 nM with NCI-H1975, 3 nM in the experiment with BaF3-TEL-ALK and 1 nM in the experiment with BaF3-NPM-ALK. In addition, the “effect on cell cycle distribution” value in the experiment on H1975 is listed as “halt the cells in G0-G1 phase”.
